Reference: US12209102B2, “Heterocyclic compounds and uses thereof” (Kumquat Biosciences Inc., priority 2022, dated 2025)

Columns and labels:
[1] = target: T1, K-Ras G12S (Homo sapiens, UniProt P01116, G12S); test: HTRF resonance energy transfer assay, K-Ras G12S / SOS1 interaction; assay type: biochemical; details: HTRF assay of Example 5; read-out: IC50 against K-Ras G12S
T1 construct: made in house; host or cells: E. coli BL21 (DE3)
Summary of the method: (§1)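 Read-out: HTRF 665/620 nm ratio (excitation 337 nm) after roughly 10 min or longer incubation, used to derive IC50. Donor anti-GST-Eu on GST-K-Ras; acceptor anti-6His-XL665 on His-hSOS1. Duplicate dose series from 10 μM down to 0.01 μM.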

[2] = target: T2, K-Ras WT (Homo sapiens, UniProt P01116); test: HTRF resonance energy transfer assay, K-Ras WT / SOS1 interaction; assay type: biochemical; details: HTRF assay of Example 5; read-out: IC50 against K-Ras WT
T2 construct: made in house; host or cells: E. coli BL21 (DE3)
Summary of the method: as §1

[3] = test system: SW620 cells; test: Ras cellular assay, growth of cells with K-Ras G12V mutation (CellTiter-Glo); assay type: cell-based; details: Homo sapiens, SW-620; cell growth, Example 9, G12V mutation; read-out: IC50 against SW620 cells
Summary of the method: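 SW620 (K-Ras G12V) cells, e.g. 800/well in RPMI-1640 with 10% heat-inactivated FBS on standard or ultra-low attachment plates, were dosed the day after plating with e.g. a 10-point 3-fold series. Viability by CellTiter-Glo luminescence about 6 days later; IC50 from four-parameter fit.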

[4] = target: T3, K-Ras G12V (Homo sapiens, UniProt P01116, G12V); test: HTRF resonance energy transfer assay, K-Ras G12V / SOS1 interaction; assay type: biochemical; details: HTRF assay of Example 5; read-out: IC50 against K-Ras G12V
T3 construct: made in house; host or cells: E. coli BL21 (DE3)
Summary of the method: as §1

[5] = test system: GP2D cells; test: Ras cellular assay, growth of cells with K-Ras G12D mutation (CellTiter-Glo); assay type: cell-based; details: cell growth, Example 9, G12D mutation, read-out: IC50 against GP2D cells
[6] = target: T4, K-Ras G12D (Homo sapiens, UniProt P01116, G12D); test: HTRF resonance energy transfer assay, K-Ras G12D / SOS1 interaction; assay type: biochemical; details: HTRF assay of Example 5; read-out: IC50 against K-Ras G12D
T4 construct: made in house; host or cells: E. coli BL21 (DE3)
Summary of the method: as §1

[7] = test system: A549 cells; test: Ras cellular assay, growth of cells with K-Ras G12S mutation (CellTiter-Glo); assay type: cell-based; details: Homo sapiens, cell growth, Example 9, G12S mutation, read-out: IC50 against A549 cells
Summary of the method: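 A549 cells (K-Ras G12S) in RPMI-1640 with 10% heat-inactivated FBS, seeded e.g. 800 per well in standard or ultra-low-attachment 384-well plates, treated next day with a dilution series (e.g. 10-point, 3-fold). Viability by CellTiter-Glo luminescence about 6 days later; IC50 from four-parameter fit.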

T3 sequence (P01116 1-188 isoform P01116-2 G12V): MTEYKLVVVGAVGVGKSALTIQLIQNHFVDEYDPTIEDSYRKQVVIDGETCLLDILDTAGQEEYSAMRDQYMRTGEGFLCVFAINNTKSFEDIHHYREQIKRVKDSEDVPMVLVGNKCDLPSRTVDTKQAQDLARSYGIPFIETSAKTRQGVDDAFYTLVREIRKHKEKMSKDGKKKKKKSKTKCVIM
T1 sequence (P01116 1-188 isoform P01116-2 G12S): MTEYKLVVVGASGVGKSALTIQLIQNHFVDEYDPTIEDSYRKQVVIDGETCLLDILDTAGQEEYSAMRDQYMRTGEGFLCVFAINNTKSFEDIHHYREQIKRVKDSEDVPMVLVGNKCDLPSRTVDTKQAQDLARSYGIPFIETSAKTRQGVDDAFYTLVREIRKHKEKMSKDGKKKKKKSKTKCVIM
T2 sequence (P01116 1-188 isoform P01116-2): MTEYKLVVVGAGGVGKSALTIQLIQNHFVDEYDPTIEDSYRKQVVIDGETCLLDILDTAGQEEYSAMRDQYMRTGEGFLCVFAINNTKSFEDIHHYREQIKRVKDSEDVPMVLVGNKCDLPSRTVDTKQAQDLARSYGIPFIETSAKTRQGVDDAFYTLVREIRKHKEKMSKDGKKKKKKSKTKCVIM
T4 sequence (P01116 1-188 isoform P01116-2 G12D): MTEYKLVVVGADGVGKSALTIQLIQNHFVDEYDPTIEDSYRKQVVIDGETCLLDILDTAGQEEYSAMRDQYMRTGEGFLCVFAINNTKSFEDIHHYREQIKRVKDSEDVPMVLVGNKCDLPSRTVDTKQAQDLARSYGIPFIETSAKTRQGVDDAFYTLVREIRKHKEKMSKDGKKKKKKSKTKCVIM

| Compound | IC50 [1] [nM] | IC50 [2] [nM] | IC50 [3] [nM] | IC50 [4] [nM] | IC50 [6] [nM] | IC50 [7] [nM] | IC50 [5] [nM] |
| --- | --- | --- | --- | --- | --- | --- | --- |
| N#Cc1c(N)sc2c(F)ccc(-c3c(Cl)c4c5c(nc(OC[C@@]67CCCN6C[C@H](F)C7)nc5c3F)N(CC(F)F)CCC(CO)O4)c12 (single isomer, unassigned) [Compound 1207] | < 100 | < 100 | < 5000 | < 100 | < 100 | < 5000 | < 500 |
| CN1c2nc(OC[C@@]34CCCN3C[C@H](F)C4)nc3c(F)c(-c4ccc(F)c5sc(N)c(C#N)c45)c(Cl)c(c23)OCC1CO (stereo partly drawn) [Compound 900, 2-amino-4-(8-chloro-10-fluoro-2-(((2R,7aS)-2-fluorotetrahydro-1H-pyrrolizin-7a(5H)-yl)methoxy)-5-(hydroxymethyl)-4-methyl-5,6-dihydro-4H-[1,4]oxazepino[5,6,7-de]quinazolin-9-yl)-7-fluorobenzo[b]thiophene-3-carbonitrile] | < 100 | < 100 | < 5000 | < 100 | < 100 | < 5000 | < 500 |
| N#Cc1c(N)sc2c(F)ccc(-c3c(Cl)c4c5c(nc(OC[C@@]67CCCN6C[C@H](F)C7)nc5c3F)N(C3CCN(C(=O)[C@@H]5N[C@H]5C5CC5)C3)CCO4)c12 (stereo partly drawn) [Compound 915, 2-amino-4-(8-chloro-4-(1-((2R,3S)-3-cyclopropylaziridine-2-carbonyl)pyrrolidin-3-yl)-10-fluoro-2-(((2R,7aS)-2-fluorotetrahydro-1H-pyrrolizin-7a(5H)-yl)methoxy)-5,6-dihydro-4H-[1,4]oxazepino[5,6,7-de]quinazolin-9-yl)-7-fluorobenzo[b]thiophene-3-carbonitrile] | < 100 | < 100 | < 5000 | < 100 | < 100 | < 5000 | < 500 |
| C[C@H]1CN(C2CCN(C(=O)C(F)F)C2)c2nc(OC[C@@]34CCCN3C[C@H](F)C4)nc3c(F)c(-c4ccc(F)c5sc(N)c(C#N)c45)c(Cl)c(c23)O1 (stereo partly drawn) [Compound 665, 2-amino-4-((6S)-8-chloro-4-(1-(2,2-difluoroacetyl)pyrrolidin-3-yl)-10-fluoro-2-(((2R,7aS)-2-fluorotetrahydro-1H-pyrrolizin-7a(5H)-yl)methoxy)-6-methyl-5,6-dihydro-4H-[1,4]oxazepino[5,6,7-de]quinazolin-9-yl)-7-fluorobenzo[b]thiophene-3-carbonitrile] | < 100 | < 100 | < 5000 | < 100 | < 100 | < 5000 | < 500 |
| N#Cc1c(N)sc2c(F)ccc(-c3c(Cl)c4c5c(nc(OC[C@@]67CCCN6C[C@H](F)C7)nc5c3F)N(C3CCN(C(=O)[C@@H]5CCOC5)C3)CCO4)c12 (stereo partly drawn) [Compound 960, 2-amino-4-(8-chloro-10-fluoro-2-(((2R,7aS)-2-fluorotetrahydro-1H-pyrrolizin-7a(5H)-yl)methoxy)-4-(1-((R)-tetrahydrofuran-3-carbonyl)pyrrolidin-3-yl)-5,6-dihydro-4H-[1,4]oxazepino[5,6,7-de]quinazolin-9-yl)-7-fluorobenzo[b]thiophene-3-carbonitrile] | < 100 | < 100 | < 5000 | < 100 | < 100 | < 5000 | < 500 |
| N#Cc1c(N)sc2c(F)ccc(-c3c(Cl)c4c5c(nc(OC[C@@]67CCCN6C[C@H](F)C7)nc5c3F)N(C3CCCC(O)C3)CCO4)c12 (stereo partly drawn) [Compound 854, 2-amino-4-(8-chloro-10-fluoro-2-(((2R,7aS)-2-fluorotetrahydro-1H-pyrrolizin-7a(5H)-yl)methoxy)-4-(3-hydroxycyclohexyl)-5,6-dihydro-4H-[1,4]oxazepino[5,6,7-de]quinazolin-9-yl)-7-fluorobenzo[b]thiophene-3-carbonitrile] | < 100 | < 100 | < 5000 | < 100 | < 100 | < 5000 | < 500 |
| N#CCCN1CCOc2c(Cl)c(-c3ccc(F)c4sc(N)c(C#N)c34)c(F)c3nc(OC[C@@]45CCCN4C[C@H](F)C5)nc1c23 [Compound 648, 2-amino-4-(8-chloro-4-(2-cyanoethyl)-10-fluoro-2-(((2R,7aS)-2-fluorotetrahydro-1H-pyrrolizin-7a(5H)-yl)methoxy)-5,6-dihydro-4H-[1,4]oxazepino[5,6,7-de]quinazolin-9-yl)-7-fluorobenzo[b]thiophene-3-carbonitrile] | < 100 | < 100 | < 5000 | < 100 | < 100 | < 5000 | < 500 |

Now from value to compound, other results behind:

| IC50 [1] [nM] | IC50 [2] [nM] | IC50 [3] [nM] | IC50 [4] [nM] | IC50 [6] [nM] | IC50 [7] [nM] | Compound | IC50 [5] [nM] |
| --- | --- | --- | --- | --- | --- | --- | --- |
| < 100 | < 100 | < 5000 | < 100 | < 100 | < 5000 | N#Cc1c(N)sc2c(F)ccc(-c3c(Cl)c4c5c(nc(OC[C@@]67CCCN6C[C@H](F)C7)nc5c3F)N(CCC(F)(F)F)CCO4)c12 [Compound 932, 2-amino-4-(8-chloro-10-fluoro-2-(((2R,7aS)-2-fluorotetrahydro-1H-pyrrolizin-7a(5H)-yl)methoxy)-4-(3,3,3-trifluoropropyl)-5,6-dihydro-4H-[1,4]oxazepino[5,6,7-de]quinazolin-9-yl)-7-fluorobenzo[b]thiophene-3-carbonitrile] | < 500 |
| < 100 | < 100 | < 5000 | < 100 | < 100 | < 5000 | N#Cc1c(N)sc2c(F)ccc(-c3c(Cl)c4c5c(nc(OC[C@@]67CCCN6C[C@H](F)C7)nc5c3F)N(CCC(F)F)CCCO4)c12 [Compound 1212, 2-amino-4-(9-chloro-4-(3,3-difluoropropyl)-11-fluoro-2-(((2R,7aS)-2-fluorotetrahydro-1H-pyrrolizin-7a(5H)-yl)methoxy)-4,5,6,7-tetrahydro-[1,5]oxazocino[4,3,2-de]quinazolin-10-yl)-7-fluorobenzo[b]thiophene-3-carbonitrile] | < 500 |
| < 100 | < 100 | < 5000 | < 100 | < 100 | < 5000 | N#Cc1c(N)sc2c(F)ccc(-c3c(Cl)c4c5c(nc(OC[C@@]67CCCN6C[C@H](F)C7)nc5c3F)N(C3CCN(C(=O)C(F)F)C3)CCO4)c12 (stereo partly drawn) [Compound 649, 2-amino-4-(8-chloro-4-(1-(2,2-difluoroacetyl)pyrrolidin-3-yl)-10-fluoro-2-(((2R,7aS)-2-fluorotetrahydro-1H-pyrrolizin-7a(5H)-yl)methoxy)-5,6-dihydro-4H-[1,4]oxazepino[5,6,7-de]quinazolin-9-yl)-7-fluorobenzo[b]thiophene-3-carbonitrile] | < 500 |
| < 100 | < 100 | < 5000 | < 100 | < 100 | < 5000 | CN1c2nc(OC[C@@]34CCCN3C[C@H](F)C4)nc3c(F)c(-c4ccc(F)c5sc(N)c(C#N)c45)c(Cl)c(c23)OC[C@@H]1CN [Compound 1113, 2-amino-4-((5S)-5-(aminomethyl)-8-chloro-10-fluoro-2-(((2R,7aS)-2-fluorotetrahydro-1H-pyrrolizin-7a(5H)-yl)methoxy)-4-methyl-5,6-dihydro-4H-[1,4]oxazepino[5,6,7-de]quinazolin-9-yl)-7-fluorobenzo[b]thiophene-3-carbonitrile] | < 500 |
| < 100 | < 100 | < 5000 | < 100 | < 100 | < 5000 | N#Cc1c(N)sc2c(F)ccc(-c3c(Cl)c4c5c(nc(OC[C@@]67CCCN6C[C@H](F)C7)nc5c3F)N(C3CCN(C(=O)[C@@H]5CCCO5)C3)CCO4)c12 (stereo partly drawn) [Compound 984, 2-amino-4-(8-chloro-10-fluoro-2-(((2R,7aS)-2-fluorotetrahydro-1H-pyrrolizin-7a(5H)-yl)methoxy)-4-(1-((S)-tetrahydrofuran-2-carbonyl)pyrrolidin-3-yl)-5,6-dihydro-4H-[1,4]oxazepino[5,6,7-de]quinazolin-9-yl)-7-fluorobenzo[b]thiophene-3-carbonitrile] | < 500 |
